According to US4990337A (priority 1988, dated 1991):

Assay: Test Example 2: emulsifiability of intermediate molecular weight fatty acid glycerides in water, test tube shaking
Format: physicochemical
Conditions: 1 ml glyceride and 9 ml water; for stability of the emulsion (separation between oil and water): on standing; for Emulsifiability: test tube shaken
Method: 1 ml of an intermediate molecular weight fatty acid glyceride and 9 ml of water were placed in a test tube, and the test tube was shaken lightly to examine the emulsifiability of the intermediate molecular weight fatty acid glyceride.
The intermediate molecular weight fatty acid glycerides examined in this Example were caprylic acid mono-, di- and tri- glycerides and caproic acid diglyceride.

| stability of the emulsion (separation between oil and water) | Molecule | Emulsifiability |
| --- | --- | --- |
| tended to separate into oil and water | CCCCCCCC(=O)OCC(COC(=O)CCCCCCC)OC(=O)CCCCCCC [Caprylic acid triglyceride] | emulsified only after vigorous shaking by hand |
| – | Caproic acid diglyceride | intermediate emulsifiability |
| the emulsion was very stable | Caprylic acid monoglyceride | emulsified in a manner very close to self-emulsification |
| – | caprylic acid diglyceride | intermediate emulsifiability |
